Changes are numbered by the printed parent chain. Numbers in names are those of the source. Read-outs that look alike come from different tables or passages of the source.
What was measured:
calf PNP N243D = target: T1, calf PNP N243D (Bos taurus, UniProt P55859, N243D); assay: Enzymatic ribosylation with α-D-ribose-1-phosphate, calf PNP N243D mutant; type: biochemical; conditions: for Vmax (Relative): ribosylation, relative to guanine ribosylation rate (=100)
T1 construct: made in house; host or cells: E. coli
T1 sequence (P55859 1-289 N243D): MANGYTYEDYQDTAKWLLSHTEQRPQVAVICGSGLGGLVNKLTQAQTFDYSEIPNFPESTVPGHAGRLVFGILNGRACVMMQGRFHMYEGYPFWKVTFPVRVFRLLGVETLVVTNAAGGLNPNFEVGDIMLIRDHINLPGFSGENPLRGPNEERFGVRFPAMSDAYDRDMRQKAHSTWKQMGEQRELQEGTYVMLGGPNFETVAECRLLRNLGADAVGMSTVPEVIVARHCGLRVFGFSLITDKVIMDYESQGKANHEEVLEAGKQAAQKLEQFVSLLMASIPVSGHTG
Method: (§1) Recombinant E. coli PNP, calf spleen PNP, and their mutated forms were expressed in E. coli and purified according to the procedures described earlier. Enzyme concentrations were calculated per monomer.
(§2) Enzymatic ribosylation reactions were carried out in 1 mL cuvettes (pathlength 4 mm) in ~50 mM HEPES buffer, pH 7.3, using 0.5 mM R1P as a ribose source. Reactions were followed fluorimetrically (see Section 2.4). On a larger scale (2–4 mg), the reactions were run in Eppendorf tubes, volume 2–3 mL, using either R1P (3–10 mM) or 7-methylguanosine as ribose sources. Products were purified by semi-preparative HPLC, concentrated and the final solutions kept frozen. Their structure has been confirmed by NMR (see Section 2.4 and Supplementary Materials) and by MS: comp. 3: m/z = 292.10385, comp. 4: m/z = 292.10400, comp. 5: m/z = 292.10398, calculated for C12H13N5O4 + H: 292.10403. Phosphorolysis reactions were run in 40–50 mM phosphate buffer, pH 7.0 or 6.5, and followed spectrally or fluorimetrically. Kinetic parameters were calculated by standard methods.

calf spleen PNP (wt) = target: T2, calf spleen PNP (wt) (Bos taurus, UniProt P55859); assay: Enzymatic ribosylation with α-D-ribose-1-phosphate, calf PNP wild type; type: biochemical; conditions: for Vmax (Relative): ribosylation, relative to guanine ribosylation rate (=100); for ribosylation activity: trimeric calf spleen PNP, wild type
T2 construct: made in house; host or cells: E. coli
T2 sequence (P55859 1-289): T1 sequence (P55859 1-289 N243D) with D243N
Method: as §1, §2

E. coli PNP-wt [1] = target: T3, E. coli PNP-wt (Escherichia coli, UniProt P0ABP8); assay: Enzymatic ribosylation with α-D-ribose-1-phosphate, E. coli PNP wild type; type: biochemical; conditions: for Vmax (Relative): ribosylation, relative to guanine ribosylation rate (=100)
T3 construct: made in house; host or cells: E. coli
T3 sequence (P0ABP8 2-239 limits assumed): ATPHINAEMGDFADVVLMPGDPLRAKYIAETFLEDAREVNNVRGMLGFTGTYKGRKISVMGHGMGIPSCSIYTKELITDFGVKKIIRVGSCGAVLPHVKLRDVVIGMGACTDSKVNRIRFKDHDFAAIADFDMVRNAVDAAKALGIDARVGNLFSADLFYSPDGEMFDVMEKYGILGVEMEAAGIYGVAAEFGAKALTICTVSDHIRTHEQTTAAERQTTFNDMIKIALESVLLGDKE
Method: as §1, §2

[2] = Ionization constants (pKa), determined spectrophotometrically; type: physicochemical; conditions: phosphate and/or acetate buffers
Method: Fluorescence spectra were measured on a Varian Eclipse instrument (Varian Corp., Palo Alto, CA, USA), and UV absorption kinetic experiments were performed on a Cary 5000 (Varian Corp., Palo Alto, CA, USA) thermostated spectrophotometer. Fluorescence yields were determined relative to tryptophan (0.15) or 1,N^6-ethenoadenosine in water (0.56, see ref. [2]). Emission spectra were measured in semi-micro cuvettes, pathlength 4 mm, to diminish the inner-filter effect. Typical spectral resolution was 2.5 nm. The ionization constants (pKa values) were determined spectrophotometrically using 20–50 mM phosphate and/or acetate buffers.

calf PNP-wt = target: T4, calf PNP-wt (Bos taurus, UniProt P55859); assay: Enzymatic phosphorolysis of ribosides, calf PNP wild type; type: biochemical; conditions: for Km: 40 mM phosphate buffer pH 7; for Vmax (Relative): relative to Vmax of guanosine phosphorolysis (=100)
T4 construct: made in house; host or cells: E. coli
T4 sequence (P55859 1-289): T1 sequence (P55859 1-289 N243D) with D243N
Method: as §1, §2

E. coli PNP-wt [3] = target: T3, E. coli PNP-wt; assay: Enzymatic phosphorolysis of ribosides, E. coli PNP wild type; type: biochemical; conditions: for Vmax (Relative): relative to Vmax of guanosine phosphorolysis (=100)
Method: as §1, §2

E. coli PNP = target: T5, E. coli PNP (Escherichia coli, UniProt P0ABP8); assay: Fluorescence titration of E. coli PNP with ligand (enzyme-ligand complexes); type: binding; conditions: in the presence of phosphate, 40 mM, pH 7, 20 °C
T5 construct: made in house; host or cells: E. coli
Method: Additionally, the fluorescence excitation spectra reveal fluorescence energy transfer (FRET) from the protein to the complexed ligand, since they show marked enhancement in the region 270–280 nm, where the tyrosine residues of the PNP molecule absorb (Figure 10).
Figure 10 Changes in fluorescence excitation (a) and emission spectra (b), observed during the titration of E. coli PNP with N^2,3-etheno-2-aminopurine (2). […] Spectra of the free ligand (3.5 μM) are given for comparison (points). Excitation spectrum of the protein, monitored at 310 nm, is given in black. Conditions: 40 mM phosphate, pH 7, at 20 °C. Concentration of protein was 10.1 μM (per subunit); that of the titrant was 0 to 3.5 μM. Lower panels: Fluorescence difference spectra, calculated from data presented on panels (a) and (b), (c) difference excitation (observed at 380 nm), (d) difference emission spectra, excited at 275 nm. Substrate concentrations are 0.17, 0.69, 1.37, 2.36 and 3.31 μM.
Etheno-tubercidine (6) forms somewhat similar fluorescent complexes with the E. coli PNP. As shown below, FRET from the protein to the ligand is evident in the excitation spectra (Figure 11), and the ligand fluorescence blue shifted from 415 to ca. 390 nm (Figure 11b,c). In this case more than 60% of protein fluorescence is quenched when protein binding sites are saturated (cf. Figure 11). […]

E. coli PNP S90A = target: T6, E. coli PNP S90A (Escherichia coli, UniProt P0ABP8, S91A); assay: Enzymatic ribosylation with α-D-ribose-1-phosphate, E. coli PNP S90A mutant; type: biochemical
T6 construct: made in house; host or cells: E. coli
Method: as §1, §2

E. coli PNP D204N = target: T7, E. coli PNP D204N (Escherichia coli, UniProt P0ABP8, D205N); assay: Enzymatic ribosylation with α-D-ribose-1-phosphate, E. coli PNP D204N mutant; type: biochemical
T7 construct: made in house; host or cells: E. coli
Method: as §1, §2

[4] = substrate: c1cn2c(n1)ncc1nc[nH]c12; assay: Enzymatic ribosylation with α-D-ribose-1-phosphate, calf PNP wild type; type: biochemical; conditions: other: ribosylation by R1P, calf-wt PNP, 40 mM HEPES pH 7
Method: as §1, §2

[5] = substrate: c1cn2c(n1)ncc1nc[nH]c12; assay: Enzymatic ribosylation with α-D-ribose-1-phosphate, calf PNP N243D mutant; type: biochemical; conditions: other: ribosylation by R1P, 40 mM HEPES pH 7
Method: as §1, §2

[6] = substrate: c1cn2c(n1)ncc1nc[nH]c12; assay: Enzymatic ribosylation with α-D-ribose-1-phosphate, E. coli PNP wild type; type: biochemical
Method: as §1, §2

[7] = substrate: OC[C@H]1O[C@@H](n2ccn3c4ncnc-4cnc23)[C@H](O)[C@@H]1O; assay: Enzymatic phosphorolysis of ribosides, E. coli PNP wild type; type: biochemical; conditions: other: phosphorolysis, E. coli PNP-wt, 40 mM phosphate buffer pH 7
Method: as §1, §2

[8] = substrate: OC[C@H]1O[C@@H](n2ccn3cc4ncnc-4nc23)[C@H](O)[C@@H]1O; assay: as above; type: biochemical; conditions: other: phosphorolysis, E. coli PNP-wt, 40 mM phosphate buffer pH 7
Method: as §1, §2

[9] = ribosylation by R1P, 40 mM HEPES pH 7
[10] = acidic dissociation, read-out: pKa (acidic dissociation of the imidazole proton)
[11] = protonation, read-out: pKa (protonation)
[12] = ribosylation, relative to guanine ribosylation rate (=100)

Molecule: c1cn2cc3nc[nH]c3nc2n1 [Compound 1, 1,N^2-etheno-2-aminopurine]
- Vmax (Relative) (calf PNP N243D; calf PNP N243D): traces
- Km (calf spleen PNP (wt); ribosylation by R1P, calf-wt PNP, 40 mM HEPES pH 7): nr
- Vmax (Relative) (calf spleen PNP (wt); calf-wt PNP): < 0.1
- ribosylation activity (calf spleen PNP (wt)): apparently inactive
- Ribosylation Site (E. coli PNP-wt [1]): mostly N^2
- Km (E. coli PNP-wt [1]; [9]): < 10 µM
- Vmax (Relative) (E. coli PNP-wt [1]): ~1
- pKa [2, 10]: 8.2
- pKa [2, 11]: 5.6

Molecule: OC[C@H]1O[C@@H](n2ccn3cc4ncnc-4nc23)[C@H](O)[C@@H]1O [Compound 4, 1,N^2-etheno-2-aminopurine-N^2-β-D-riboside]
- Km (calf PNP-wt): nr
- Vmax (Relative) (calf PNP-wt): <0.1
- pKa [2, 11]: ~6.3
- Vmax (Relative) (E. coli PNP-wt [3]): 4

Molecule: c1cn2c(n1)ncc1nc[nH]c12 [Compound 2, N^2,3-etheno-2-aminopurine]
- quenching of the protein fluorescence at 305 nm (E. coli PNP): moderate quenching
- Ribosylation Site (E. coli PNP S90A): predominantly N^2
- Km (E. coli PNP S90A; [9]): ~20 µM
- Vmax (Relative) (E. coli PNP S90A; [12]): 23
- Ribosylation Site (calf PNP N243D; calf PNP N243D): predominantly N^2
- ribosylation activity (calf PNP N243D; calf PNP mutated in the active site (N243D)): fairly rapidly ribosylated
- Vmax (Relative) (calf PNP N243D; calf PNP N243D): 29
- Ribosylation Site (calf spleen PNP (wt); calf-wt PNP): predominantly N^2
- Vmax (Relative) (calf spleen PNP (wt); calf-wt PNP): ~5
- ribosylation activity (calf spleen PNP (wt)): moderate rate
- Ribosylation Site (E. coli PNP D204N): predominantly N^2
- Km (E. coli PNP D204N; [9]): 12 µM
- Vmax (Relative) (E. coli PNP D204N; [12]): 30
- Ribosylation Site (E. coli PNP-wt [1]): predominantly N^2
- Vmax (Relative) (E. coli PNP-wt [1]): 20
- pKa [2, 10]: ~9.5
- pKa [2, 11]: 5

Molecule: OC[C@H]1O[C@@H](n2cnc3cn4ccnc4nc32)[C@H](O)[C@@H]1O [Compound 3, 1,N^2-etheno-2-aminopurine-N^9-β-D-riboside]
- Km (calf PNP-wt): nr
- Vmax (Relative) (calf PNP-wt): <0.1
- Km (E. coli PNP-wt [3]; 40 mM phosphate buffer pH 7): nr
- Vmax (Relative) (E. coli PNP-wt [3]): <1

Molecule: OC[C@H]1O[C@@H](n2ccn3c4ncnc-4cnc23)[C@H](O)[C@@H]1O [Compound 5, N^2,3-etheno-2-aminopurine-N^2-β-D-riboside]
- Vmax (Relative) (calf PNP-wt): 3
- pKa [2, 11]: 6.15
- Vmax (Relative) (E. coli PNP-wt [3]): 115

B1: calf spleen PNP (wt) (Bos taurus) (protein)
chain: T1 sequence (P55859 1-289 N243D) with D243N
notes: made in house; host or cells: E. coli
- Km [4]: ~8 µM

B2: calf PNP N243D (Bos taurus; N243D) (protein)
chain: T1 sequence (P55859 1-289 N243D)
notes: as for B1
- Km [5]: 110 µM

B3: E. coli PNP (wt) (Escherichia coli K-12) (protein)
chain: T3 sequence (P0ABP8 2-239 limits assumed)
notes: as for B1
- Km ([6]; other: E. coli PNP and its mutated forms): 10 µM
- Km ([6]; other: ribosylation by R1P, E. coli-wt PNP, 40 mM HEPES pH 7, pH 7.0): 11 µM

B4: E. coli PNP-wt (Escherichia coli K-12) (protein)
chain: T3 sequence (P0ABP8 2-239 limits assumed)
notes: as for B1
- Km [7]: ~ 20 μM
- Km [8]: 47 µM
